A short description of this data set: gradient 5% acetonitrile 3 min, to 50% in 2 min, to 85% in 15 min, held 3 min, 100 µL/min. To be noted: column: Zorbax Extend-C18 2.1 x 50 mm; eluents: water / acetonitrile, 0.1% formic acid. The method in brief: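 Over 3 months, pure standards in mixtures of ~100 molecules were run by HPLC coupled to a quadrupole time-of-flight mass spectrometer in positive and negative ionization mode. The column was a Zorbax Extend-C18 (2.1 × 50 mm, 1.8 μm) at 100 μL/min, eluted with water and acetonitrile each holding 0.1% formic acid, with 40 μL dead and 900 μL dwell volumes. Retention time was determined from adduct peaks chosen by software and checked manually.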
For the compound `O=C(Cn1nc(C(=O)N2CCCC2)c2ccccc21)N1CCN(c2cccc(Cl)c2)CC1`, the RP-LC retention time was found to be 942 s.

`COc1ccc(Nc2c(-c3ccc(C)cc3)nc3ncccn23)cc1OC` registered an RP-LC retention time of 683 s.

`O=c1n(Cc2ccc(Cl)cc2)nc2c(S(=O)(=O)N3CCCCC3)cccn12`: the RP-LC retention time worked out at 919 s.

On to `O=C(O)C1CCN(c2nc3ccc(-c4ccncc4)nc3s2)CC1`, for which the RP-LC retention time was found to be 588 s.

`CCc1nc(OCC(=O)Nc2ccc(OC)cc2OC)c2ccccc2n1`: the RP-LC retention time was found to be 788 s.

`Cc1cccc(N2C(=O)c3cccnc3C2CC(=O)N2CCN(c3ccccn3)CC2)c1` (centres undefined): the RP-LC retention time was determined as 562 s.

The compound `CS(=O)(=O)N1CCCc2cc(C(=O)NCCCn3ccnc3)ccc21` came in with an RP-LC retention time of 597 s.

`CCCn1c(=O)sc2cc(S(=O)(=O)N3CCC(C(=O)N(C)C4CCCCC4)CC3)ccc21` displayed an RP-LC retention time of 1020 s.

As to `COc1ccc(C(=O)N(C2CCCC2)C2(C(=O)NCc3ccccc3)CCN(C(C)=O)CC2)cc1`, the RP-LC retention time is 885 s.

With `O=C(Cn1nc2c3sc(N4CCCC4)nc3ncn2c1=O)Nc1ccc(F)cc1`, the RP-LC retention time came out at 718 s.

The compound `O=C([C@@H]1C[C@H](F)CN1S(=O)(=O)c1cc(F)ccc1F)N1CCCCC1` registered an RP-LC retention time of 794 s.

For `Cc1nn(CC(=O)NCCCN2CCCC2)c(=O)c2nn(-c3ccccc3)c(C)c12`, the RP-LC retention time stood at 597 s.

`CCCn1c(=O)sc2cc(S(=O)(=O)N3CCC(C(=O)NCc4ccc(C)cc4)CC3)ccc21`: the RP-LC retention time turned out to be 969 s.

`Fc1cccc(-c2nc3ncccn3c2NCc2ccc(Cl)cc2)c1` returned an RP-LC retention time of 834 s.

Turning to `COc1cc(-c2ccc(Cl)cc2)nc2ccc(NC(=O)c3cccs3)cc12`, the RP-LC retention time was determined as 814 s.

In turn, `O=C(Nc1ccc2c(c1)OCO2)C1CC(=O)N(c2n[nH]c3cccc(F)c23)C1` (centres undefined) yielded an RP-LC retention time of 694 s.

The compound `CC1=C(c2ccc(F)cc2)S(=O)(=O)N=C1N1CCCN(C(=O)C(C)(C)C)CC1` returned an RP-LC retention time of 814 s.

For `Cc1ccc(N2CC(c3noc(-c4cc(Cl)ccc4F)n3)CC2=O)cc1` (centres undefined), the RP-LC retention time stood at 1090 s.

`Cc1nc2c(NS(=O)(=O)c3ccc(F)cc3)cccn2n1` had an RP-LC retention time of 715 s.

`COC(=O)N1CCN(CCNC(=O)c2cccc3ccccc23)CC1` returned an RP-LC retention time of 542 s.

For the compound `COC(=O)c1ccc(NC(=O)N2CCCC2c2cc(C)on2)cc1` (centres undefined), the RP-LC retention time was 739 s.

Regarding `Cc1csc(-c2cc(S(=O)(=O)NCc3cccs3)c(C)n2C)n1`, the RP-LC retention time was determined as 924 s.

Turning to `Cc1ccc(-c2nnc(Cc3nc(-c4ccccc4C)no3)o2)cc1`, the RP-LC retention time was determined as 1100 s.

Turning to `Cc1ccc(S(=O)(=O)N2CCC3(CC2)NCCN=C3NCc2cccc(F)c2)c(C)c1`, the RP-LC retention time is 750 s.

For `Nc1nnc(SCc2nnc(-c3ccccc3)o2)s1`, the RP-LC retention time worked out at 654 s.

Turning to `CCc1ccc(C(=O)N2CCC(c3nc4ccncc4n3C(C)C)C2)cc1` (centres undefined), the RP-LC retention time was found to be 572 s.

In turn, `CC(C)NC(=O)C1CCN(C(=O)c2ncn3c2COC(c2ccc(F)cc2)C3)CC1` (centres undefined) returned an RP-LC retention time of 679 s.

With `Cc1ccccc1-c1nnc(COc2ccc(NC(=O)c3n[nH]c4c3CCCC4)cc2)o1`, the RP-LC retention time came to 975 s.

`CCc1cccc(NC(=O)C2CCN(S(=O)(=O)c3ccc4c(c3)sc(=O)n4CC)CC2)c1` came in with an RP-LC retention time of 932 s.

`Cn1c(=O)c(N2CCC(NC(=O)Nc3ccccc3C(F)(F)F)CC2)nc2ccccc21` came in with an RP-LC retention time of 953 s.

`Cc1ccccc1OCC(=O)NCC1CC(=O)N(c2ccccc2)C1` (centres undefined) yielded an RP-LC retention time of 741 s.

`CC(C)NC(=O)c1ccc(-c2nc3cc(NS(=O)(=O)c4cc(F)ccc4F)ccc3n2C)cc1` came in with an RP-LC retention time of 705 s.

Compound `O=C(Nc1cc(-c2ccccn2)no1)c1nccc2ccccc12` gave an RP-LC retention time of 956 s.

For `CNc1nc(Nc2ccccc2F)nc2ccccc12`, the RP-LC retention time came out at 634 s.

Compound `COc1cc(NC(=O)Cn2cnc3nc(N4CCCC4)ncc3c2=O)cc(OC)c1` gave an RP-LC retention time of 703 s.

Take `CC1Cc2nc(SCC(=O)NCC3CCCO3)n(-c3ccc(F)cc3)c(=O)c2S1` (centres undefined): the RP-LC retention time was determined as 728 s.

In turn, `CCCCN1CCN(Cc2nc(-c3ccc(N4CCCCC4)nc3)no2)CC1` showed an RP-LC retention time of 602 s.

As to `CCC(=O)N1CCc2cc(-c3ccc(C(=O)N4CCN(c5ncccn5)CC4)cc3)ccc21`, the RP-LC retention time is 855 s.

`COc1ccc(NC(=O)Cn2c(C)cc(-c3nnc(-c4ccc(F)cc4)o3)c2C)cc1F`: the RP-LC retention time came to 962 s.

Turning to `Cn1c(=O)c2c3c(cnc2n(C)c1=O)C(=O)CCC3`, the RP-LC retention time came to 704 s.

In the case of `CCn1c(-c2ccccc2)nc2ccccc21`, the RP-LC retention time is 623 s.

`O=C(Nc1nccnc1C(=O)NCCCN1CCOCC1)c1ccccc1` gave an RP-LC retention time of 551 s.

`Cn1c(CN2CCN(C(=O)c3cccs3)CC2)nc2cc(C(=O)N3CCCC3)ccc21` had an RP-LC retention time of 597 s.

With `C=CCSc1nc2ccccc2c2nc(C)nn12`, the RP-LC retention time stood at 982 s.

On to `COc1cccc(-c2nnc(Cc3nc(-c4cccc(F)c4)no3)o2)c1`, for which the RP-LC retention time was found to be 991 s.

`Cc1ccc(N2C(=O)C3N=NN(Cc4nc(-c5ccccc5Br)no4)C3C2=O)cc1C` (centres undefined) yielded an RP-LC retention time of 1030 s.

Consider `CCCCN(CC)S(=O)(=O)c1cc(-c2nnc(C)o2)co1`, for which the RP-LC retention time is 869 s.

For the compound `COc1ccccc1-c1nc(C2CC(=O)N(c3ccc(Cl)cc3)C2)no1` (centres undefined), the RP-LC retention time came to 1020 s.

For `O=C(c1ccc2c(c1)OCO2)N1CCC2(CC1)CC(O)CCO2` (centres undefined), the RP-LC retention time turned out to be 590 s.

`Cc1noc(-c2ccc(=O)n(C(C)C)n2)n1`: the RP-LC retention time came out at 715 s.

The compound `CN(C)S(=O)(=O)c1ccc(-c2nnc(C(=O)NCc3ccc4c(c3)OCO4)o2)cc1` had an RP-LC retention time of 814 s.

Consider `CN(C)C(=O)c1n[nH]c2c1CN(C(=O)c1ccc(C(F)(F)F)cc1)CC2`, for which the RP-LC retention time was 674 s.

For `O=c1c2sccc2n(Cc2nc(-c3ccccc3)no2)c(=O)n1-c1ccc(F)cc1`, the RP-LC retention time is 969 s.

With `Cc1ccc(-c2ccc(N3CCCC(C(=O)N4CCCC4)C3)nn2)cc1` (centres undefined), the RP-LC retention time was 647 s.

As to `CCCN(C(=O)Nc1ccc(CC)cc1)c1nc(-c2ccc(Br)cc2)cs1`, the RP-LC retention time is 660 s.

Regarding `C/C=C1/CN2CC[C@]34C(=C(C=O)[C@H]1C[C@H]23)Nc1ccccc14`, the RP-LC retention time was 606 s.

For the compound `O=C(Cn1c(=O)n(-c2ccc(F)cc2)c2ncccc21)NCCN1CCCCC1`, the RP-LC retention time came out at 592 s.

As to `CCCc1noc(-c2cccnc2N2CCCN(Cc3cc(F)cc(F)c3)CC2)n1`, the RP-LC retention time worked out at 733 s.

In turn, `CN(NC1=NCCO1)c1ccc2ccccc2c1` had an RP-LC retention time of 620 s.

Compound `CC1(C)C(=O)N(CC(=O)N2CCc3ccccc3C2)c2ccccc21` showed an RP-LC retention time of 930 s.

`COc1ccc(N2CCN(c3cc(C(=O)O)c4cc(NC(=O)CC(C)C)ccc4n3)CC2)cc1` yielded an RP-LC retention time of 655 s.

On to `CCOc1ccc(OCC)c(N2C=C(C#N)S(=O)(=O)c3ccccc32)c1`, for which the RP-LC retention time is 1000 s.

Regarding `CCOC(=O)c1ccc(NS(=O)(=O)c2cc3n(c2)CCN(CC)C3=O)cc1`, the RP-LC retention time was found to be 744 s.

`CCOc1ccc(-c2[nH]ncc2CNS(=O)(=O)c2ccc(OC)c(Cl)c2)cc1` yielded an RP-LC retention time of 860 s.

`Cc1cc(C)cc(NC(=O)CN2CCN(Cc3ccccc3)C(=O)C2=O)c1` came in with an RP-LC retention time of 782 s.

`COc1ccc(S(=O)(=O)NCc2c(-c3ccccc3)nc3sc(C)nn23)cc1Cl` yielded an RP-LC retention time of 912 s.

Compound `Cc1cccc(-c2nc(C3CCN(S(=O)(=O)c4ccccc4F)CC3)no2)c1` had an RP-LC retention time of 1160 s.

For the compound `Cc1ccc(Cl)cc1NC(=O)C1CC(=O)N(CCc2c[nH]c3ccc(F)cc23)C1` (centres undefined), the RP-LC retention time came to 875 s.

`Cc1c(C(=O)N(C)C)cnn1-c1cc(-c2nc(C(C)(C)C)no2)ccn1`: the RP-LC retention time was found to be 922 s.

As to `COc1ccc(NC(=O)c2nnc(CSCC(=O)NCCc3c[nH]c4ccc(C)cc34)s2)cc1`, the RP-LC retention time was 910 s.

For `COc1ccc(S(=O)(=O)N2CC3CN(C(=O)C4CCCO4)CC(C2)O3)cc1` (centres undefined), the RP-LC retention time worked out at 659 s.

Regarding `O=C(c1ccc2c(c1)OCO2)N1CCCCC1c1nncn1CC1CC1` (centres undefined), the RP-LC retention time stood at 631 s.

`CCn1cc(CN2CCC(N3CC4(CCCCC4)C3c3ccncc3)CC2)cn1` (centres undefined) yielded an RP-LC retention time of 565 s.

`Cc1ccc(CNC(=O)N2CCc3nc(-c4ccc(F)cc4)ncc3C2)cc1` came in with an RP-LC retention time of 952 s.

Compound `CC(C)CC(=O)N1CCN(c2ccc(=O)n(-c3cccc(Cl)c3)n2)CC1` came in with an RP-LC retention time of 829 s.

The compound `CNC(=O)N1CCCC(c2cccc(C(=O)N3CCN(c4ccccc4Cl)CC3)c2)C1` (centres undefined) gave an RP-LC retention time of 904 s.

Compound `O=C(Cc1csc(-c2ccccc2)n1)NCc1nc2ccccc2[nH]1` yielded an RP-LC retention time of 647 s.

As for `Cc1ccc(-n2c(=O)c3c(cc(C)n3C)n(CC(=O)Nc3ccc(Br)cc3F)c2=O)cc1`, the RP-LC retention time is 944 s.

In the case of `CCc1cccc(C)c1Nc1c(-c2ccccc2)nc2nc(C)cc(C)n12`, the RP-LC retention time was 816 s.

The record behind these values is the METLIN SMRT retention time set (Domingo-Almenara et al. 2019).
